Test results reported in patent US3998808A, “Compositions of matter D-hetero-1,1-(α-thiocyanoacetyl) compounds” (Velsicol Chemical Corporation, priority 1971, dated 1976).
Where two headings read alike, the source gives them in different places.

How the values were obtained:
Format in all cases: in vivo
[1] = test system: housefly (Musca domestica); assay: housefly knockdown test; settings: sprayed with formulation containing 3500 ppm; knockdown after 30 minutes, in comparison to a control
Description: In one experiment, designated as the housefly knockdown test, 50, 3-day-old, unsexed, adult houseflies were anesthetized with carbon dioxide gas and placed into a fine mesh wire cage. The flies were allowed to recover completely from the effects of the carbon dioxide gas and were then sprayed with a test formulation containing 3500 ppm of the test compound. After 30 minutes the knockdown value of the test compound was determined. Knockdown is considered as an individual fly that is unable to move its body length, and the knowndown value is given as a percent of down flies based on the number of down flies in comparison to a control.

[2] = test system: housefly (Musca domestica); assay: housefly topical test; settings: read-out: % Control Housefly Topical Test
Description: In another experiment designated as the housefly topical test, each of fifty flies was contacted with a test compound by applying […] of test formulation containing 3500 ppm of active chemical to the dorsum of its thorax. The flies were then placed in a wire mesh cage where they were supplied with sugar syrup. At the end of a 24 hour period the mortality of the flies was observed and rated in comparison to a control.

[3] = test system: pea aphid (Acyrthosiphon pisum); assay: whole plant or invertebrate; settings: sprayed at 3500 ppm, aqueous emulsion of an acetone solution, 48 hours, in comparison to a control, read-out: mortality of the pea aphids
Excerpt: The insecticidal activity of the compounds of this invention was further illustrated in an experiment for the control of the pea aphid (Acyrthosiphon pisum). In this experiment a ten day old Laxton pea plant contained in a small plastic pot was infested with ten adult pea aphids. The plant and pea aphids were then sprayed with the test compound formulated as an aqueous emulsion of an acetone solution, at a concentration of 3500 ppm. The infested plants were then placed in a holding chamber maintained at a constant temperature for a period of 48 hours. After this time the mortality of the aphids was determined and rated on a percent basis in comparison to a control. In this experiment the compounds 1-(α-thiocyanoacetyl) pyrrolidine and 1-(α-thiocyanoacetyl)-2,6-dimethylpiperidine gave 100% mortality of the pea aphids.

[4] = test system: leaf rust of wheat (Puccinia rubigo-vera); assay: protection of wheat against leaf rust of wheat; settings: wheat plants sprayed with 1000 ppm solutions before inoculation; about 8 days in greenhouse; in comparison with untreated controls
Description: In one experiment carried out for the protection of wheat against leaf rust of wheat (Puccinia rubigo-vera), 6 day old wheat plants were sprayed with 1000 ppm solutions of the test compounds. After the spray film had dried, the plants were inoculated by shaking a 9 to 13 day old leaf rust of wheat culture over the foliage. Immediately after inoculation the plants were placed in a 20° C. moist chamber overnight. The plants were then transferred to a greenhouse and kept there for a period of about 8 days. After this time the extent of the disease was observed and rated in comparison with untreated controls.

[5] = 1 ml of formulation containing 3500 ppm applied to dorsum of thorax, mortality after 24 hours, in comparison to a control

SMILES	% Control Housefly Knockdown Test [1]	mortality at 3500 µg/mL [2, 5]	mortality at 3500 ppm [3]	% Control (leaf rust of wheat) [4]	mortality at 3500 µg/mL ([2]; 24 h)
N#CSCC(=O)N1CCCCCC1 [1-(α-thiocyanoacetyl) hexamethylenimine]	94%	31%			
CC1CCC(C)N1C(=O)CSC#N (stereo not drawn) [1-(α-thiocyanoacetyl)-2,5-dimethylpyrrolidine]	100%	100%			
CC1CCCC(C)N1C(=O)CSC#N (stereo not drawn) [1-(α-thiocyanoacetyl)-2,6-dimethylpiperidine]	92%		100%	96%	94%
CC1CCCN(C(=O)CSC#N)C1 (stereo not drawn) [1-(α-thiocyanoacetyl)-3-pipecoline]	100%	100%		90%	
CC1CCN(C(=O)CSC#N)CC1 [1-(α-thiocyanoacetyl)-4-pipecoline]	100%	100%		99%	
N#CSCC(=O)N1CCCC1 [1-(γ-Thiocyanoacetyl) pyrrolidine, 1-(α-thiocyanoacetyl) pyrrolidine]			100%	98%	
